Read-outs that look alike come from different tables or passages of the source.
Key:
786-0 (renal cancer) = assay: NCI method SRB growth inhibition, 786-0; type: cell-based; conditions: Homo sapiens; 786-0, treated 48 hours, SRB stain
Source text: (§1) In this embodiment, the method of National Cancer Institute (NCI) was used to evaluate the anti-tumor activity of the embodiment compounds in the present disclosure. Nine representative cell lines were selected for activity evaluation, including A549 (non-small cell lung cancer), HCT116 (colon cancer), SF295 (central nervous system tumor), LOX-IMVI (melanoma), 786-0 (renal cancer), K562 (leukemia), PC-3 (prostate cancer), OVCAR-3 (ovarian cancer) and HS 578T (breast cancer).
(§2) The specific method was as follows: 60 tumor cell lines of 9 kinds of human cancers were used to evaluate the inhibitory activity of the compound in vitro. A test group, a parallel control group and a vehicle control group were set up. The parallel control group was fixed immediately before the compound was added; the cells in the test group were fixed after being treated with the compound for 48 hours; the vehicle control group was fixed after an equal volume of complete medium was added for 48 hours. Sulforhodamine B (SRB) was used to stain, and the OD value was measured at a wavelength of 515 nm. The specific calculation method was as follows: the OD value of the parallel control group was recorded as Tz, the OD value of the vehicle control group was recorded as C, and the OD value of the test group was recorded as (Ti). If Ti≥Tz, it means that the cells still grow after the drug was added, and the growth rate %=[(Ti−Tz)/(C−Tz)]×100; if Ti<Tz, it means that the cells are killed after the drug was added, and the growth rate %=[(Ti−Tz)/Tz]×100. Three parameters were used to evaluate the anti-tumor activity of compounds in this method: 50% growth inhibitory concentration (GI50): i.e. the compound concentration at [(Ti−Tz)/(C−Tz)]×100=50; complete growth inhibitory concentration (TGI): the compound concentration at Ti=Tz; the drug concentration required to kill 50% of the cells (LC50): i.e. the compound concentration at [(Ti−Tz)/Tz]×100=−50.
(§3) The inhibitory activities of the embodiment compounds on nine representative tumor cell lines were listed in detail in Table 1. Wherein, the GI50 value means “50% growth inhibition rate”, that is, the concentration of the compound to be tested when it can inhibit […] of cell growth; “ND” means not detected.

[1] = test system: A549 (non-small cell lung cancer); assay: NCI method SRB growth inhibition, A549; type: cell-based; conditions: Homo sapiens; A549, treated 48 hours, SRB stain
Source text: as §1, §2, §3

LOX-IMVI (melanoma) = assay: NCI method SRB growth inhibition, LOX-IMVI; type: cell-based; conditions: Homo sapiens, treated 48 hours, SRB stain
Source text: as §1, §2, §3

[2] = Liver microsomes stability; type: in vitro ADME, human; conditions: 1 μM compound, 1 mg/mL human liver microsomes, 1 mM NADPH; for half-life at 1 μM: read-out: T½ of HLM
Protocol: The compound to be tested with final concentration of 1 μM was incubated with 1 mg/mL of human liver microsomes and 1 mM of NADPH, and a group without NADPH was set as a negative control. The reaction mixture was quenched with methanol at five time points of 0, 5, 15, 30 and 60 min, respectively, then centrifuged at 2500 rpm for 20 min to precipitate proteins, and the resulting supernatant was analyzed by LC-MS/MS. The data was analyzed and the k value and half-life T1/2 was calculated, T1/2(min)=0.693/k.
Wherein, compounds a, b and c are active compounds disclosed in patent No. ZL201610154581.3.

[3] = test system: SF295 (central nervous system tumor); assay: NCI method SRB growth inhibition, SF295; type: cell-based; conditions: Homo sapiens, SF-295; SF295, treated 48 hours, SRB stain
Source text: as §1, §2, §3

[4] = test system: breast cancer cell line SUM159 sphere; assay: Breast cancer stem cell sphere formation; type: cell-based, human; conditions: 50 nM; for formation of the sphere after cell passage: 5 days of drug treatment, then passage
Protocol: The inhibitory effects of embodiment compounds 5, 7, 11, 13, 14, 20 and 21 on the formation of breast cancer cell line SUM159 sphere are described as follows.
The breast cancer cell line SUM159 sphere was cultured with serum-free medium in an ultra-low adsorption plate, the basal medium was DMEM/F12 (without phenol red), and B27 (without vitamin A) (1×), EGF (20 ng/ml), bFGF (20 ng/ml) and insulin (insulin, 5 ug/ml) were added.
An equal number (4000) of SUM159 cells per well were inoculated into an ultra-low adsorption 24 plate, and the sphere was photographed after 5 days of culture, replaced with fresh medium, and treated with drugs at certain concentrations, respectively. Compounds 5, 7, 11, 13, 14, 20 and 21 were evaluated in this experiment at 50 nM, respectively. The effect of the drug on the sphere phenotype could be observed after about 3 days of drug treatment. The sphere was photographed again after 5 days of drug treatment, and then the sphere was passaged. The sphere was photographed again after 7 days of passage.
The differences of the photographs taken in three different stages were counted and compared, and the killing effect of the tested compounds on SUM159 sphere was evaluated through the differences of sphere formation after passage, thus reflecting the inhibitory effects of different compounds on breast cancer stem cells.

PC-3 (prostate cancer) = assay: NCI method SRB growth inhibition, PC-3; type: cell-based; conditions: Homo sapiens; PC-3, treated 48 hours, SRB stain
Source text: as §1, §2, §3

OVCAR-3 (ovarian cancer) = assay: NCI method SRB growth inhibition, OVCAR-3; type: cell-based; conditions: Homo sapiens; OVCAR-3, treated 48 hours, SRB stain
Source text: as §1, §2, §3

HCT116 (colon cancer) = assay: NCI method SRB growth inhibition, HCT116; type: cell-based; conditions: Homo sapiens, HCT-116; HCT116, treated 48 hours, SRB stain
Source text: as §1, §2, §3

K562 (leukemia) = assay: NCI method SRB growth inhibition, K562; type: cell-based; conditions: Homo sapiens; K562, treated 48 hours, SRB stain
Source text: as §1, §2, §3

HS 578T (breast cancer) = assay: NCI method SRB growth inhibition, HS 578T; type: cell-based; conditions: Homo sapiens, HS578T, treated 48 hours, SRB stain
Source text: as §1, §2, §3

Structure (SMILES) | GI50 (786-0 (renal cancer)) [nM] | GI50 [1] [nM] | GI50 (LOX-IMVI (melanoma)) [nM] | microsomal CLint at 1 μM [2] [µL/min/mg] | half-life at 1 μM ([2]; human, human liver microsomes) [h] | GI50 [3] [nM] | killing effect on SUM159 sphere [4] | formation of the sphere after cell passage [4] | GI50 (PC-3 (prostate cancer)) [nM] | GI50 (OVCAR-3 (ovarian cancer)) [nM] | GI50 (HCT116 (colon cancer)) [nM] | GI50 (K562 (leukemia)) [nM] | half-life at 1 μM [2] [h] | microsomal CLint at 1 μM ([2]; human, human liver microsomes) [µL/min/mg] | GI50 (HS 578T (breast cancer)) [nM]
[2H]C([2H])([2H])Oc1cc(C(=O)Nc2cc3c(cc2Oc2cc(C)cc(C)c2)C(=O)N(C)[C@@H](CC(=O)N(C([2H])([2H])[2H])C([2H])([2H])[2H])C(=O)N3)c(Br)c(OC([2H])([2H])[2H])c1OC([2H])([2H])[2H] [Compound 14, (S)-2-bromo-N-[3-[2-[bis(trideuteromethyl)amino]-2-oxoethyl]-7-(3,5-dimethylphenoxy)-4-methyl-2,5-dioxo-2,3,4,5-tetrahydro-1H-benzo[e][1,4]diazepin-8-yl]-3,4,5-tris(trideuteromethoxy)benzamide] | 5 | < 5 | < 5 | 11.3 | 1.02 | < 5 | strong killing effect | significantly reduced | < 5 | < 5 | < 5 | < 5 |  |  | 
[2H]C([2H])([2H])Oc1cc(C(=O)Nc2cc3c(cc2Oc2cc(C)cc(C)c2)C(=O)N[C@@H](CC(=O)N(C([2H])([2H])[2H])C([2H])([2H])[2H])C(=O)N3)c(Br)c(OC([2H])([2H])[2H])c1OC([2H])([2H])[2H] [Compound 21, (S)-2-bromo-N-[3-[2-[bis(trideuteromethyl)amino]-2-oxoethyl]-7-(3,5-dimethylphenoxy)-2,5-dioxo-2,3,4,5-tetrahydro-1H-benzo[e][1,4]diazepin-8-yl]-3,4,5-tris(trideuteromethoxy)benzamide] | 12.9 | 6.1 | < 5 |  |  | 11.3 | strong killing effect | significantly reduced | < 5 | < 5 | < 5 | < 5 |  |  | 
[2H]C([2H])([2H])Oc1cc(C(=O)Nc2cc3c(cc2Oc2cc(C)cc(C)c2)C(=O)N(C)[C@@H](CC(=O)N(OC([2H])([2H])[2H])C([2H])([2H])[2H])C(=O)N3)c(Br)c(OC([2H])([2H])[2H])c1OC([2H])([2H])[2H] [Compound 34] | < 5 | < 5 | < 5 |  |  | < 5 |  |  | < 5 | < 5 | < 5 | < 5 | 1.2 | 9.6 | < 5
[2H]C([2H])([2H])Oc1cc(C(=O)Nc2cc3c(cc2Oc2cc(C)cc(C)c2)C(=O)N[C@@H](CC(=O)N(C)OC)C(=O)N3)c(Cl)c(OC([2H])([2H])[2H])c1OC([2H])([2H])[2H] [Compound 35] | 21.1 | < 5 | 5.6 | 11.7 | 0.987 | 29 |  |  | < 5 | < 5 | 9.8 | < 5 |  |  | 16
[2H]C([2H])([2H])Oc1cc(C(=O)Nc2cc3c(cc2Oc2cc(C)cc(C)c2)C(=O)N(C)[C@@H](CC(=O)N(C)OC)C(=O)N3)c(Cl)c(OC([2H])([2H])[2H])c1OC([2H])([2H])[2H] [Compound 36] | 11.9 | < 5 | < 5 | 6.8 | 1.7 | 10 |  |  | < 5 | < 5 | < 5 | < 5 |  |  | 8.5
[2H]C([2H])([2H])Oc1cc(C(=O)Nc2cc3c(cc2Oc2cc(C)cc(C)c2)C(=O)N[C@@H](CC(=O)N(OC([2H])([2H])[2H])C([2H])([2H])[2H])C(=O)N3)c(Br)c(OC([2H])([2H])[2H])c1OC([2H])([2H])[2H] [Compound 37] | 8.6 | < 5 | < 5 | 7.7 | 1.5 | 12 |  |  | < 5 | < 5 | < 5 | < 5 |  |  | < 5
[2H]C([2H])([2H])Oc1cc(C(=O)Nc2cc3c(cc2Oc2cc(C)cc(C)c2)C(=O)N[C@@H](CC(=O)N(OC([2H])([2H])[2H])C([2H])([2H])[2H])C(=O)N3)c(Cl)c(OC([2H])([2H])[2H])c1OC([2H])([2H])[2H] [Compound 38] | 23 | < 5 | 5.2 | 7.2 | 1.6 | 27 |  |  | < 5 | < 5 | 13 | < 5 |  |  | 21
[2H]C([2H])([2H])Oc1cc(C(=O)Nc2cc3c(cc2Oc2cc(C)cc(C)c2)C(=O)N(C)[C@@H](CC(=O)N(OC([2H])([2H])[2H])C([2H])([2H])[2H])C(=O)N3)c(Cl)c(OC([2H])([2H])[2H])c1OC([2H])([2H])[2H] [Compound 39] | 9 | < 5 | < 5 | 13.7 | 0.843 | 12 |  |  | < 5 | < 5 | 7 | < 5 |  |  | 6
[2H]C([2H])([2H])Oc1cc(C(=O)Nc2cc3c(cc2Oc2cc(C)cc(C)c2)C(=O)N[C@@H](CC(=O)N(C)OC([2H])([2H])[2H])C(=O)N3)c(Br)c(OC([2H])([2H])[2H])c1OC([2H])([2H])[2H] [Compound 40] | < 5 | < 5 | < 5 | 9 | 1.28 | < 5 |  |  | < 5 | < 5 | < 5 | < 5 |  |  | < 5
[2H]C([2H])([2H])Oc1cc(C(=O)Nc2cc3c(cc2Oc2cc(C)cc(C)c2)C(=O)N[C@@H](CC(=O)N(OC)C([2H])([2H])[2H])C(=O)N3)c(Br)c(OC([2H])([2H])[2H])c1OC([2H])([2H])[2H] [Compound 41] | < 5 | < 5 | < 5 | 7.6 | 1.52 | < 5 |  |  | < 5 | < 5 | < 5 | < 5 |  |  | < 5

— US12577213B2 (NINGBO COMBIREG PHARMACEUTICAL TECHNOLOGY CO., LTD., priority 2020, dated 2026)
